From patent publication US20020188010A1, “Compositions of matter containing L-glutamine and pyridoxal-alpha-ketoglutarate” (priority 2001, published 2002)

Key:
IBS (6 yrs duration) = assay: Improvement of IBS in patients given L-glutamine alone or L-glutamine/PAK; type: in vivo
From the text: (§1) [table] While the compositions of the invention have been tested on patients suffering from disorders affecting the intestinal mucosa, the methods of the invention are appropriate for use in treating other diseases wherein stimulation of cell growth or repair of cells with natural rapid turn-over is desirable. Such diseases include, but are not limited to, leaky gut syndrome and other diseases of maldigestion, chronic fatigue syndrome, fibromyalgia, diabetes, thyroiditis and chronic viral disease. The combination therapy described herein will, by enhancing the growth and the repair of intestinal cells, increase the ability of the intestinal wall to reject and neutralize parasites and inhibit overgrowth of fungal organisms.

Ileitis (9 yrs duration) = assay: Improvement of ileitis in patients given L-glutamine alone or L-glutamine/PAK; type: in vivo
From the text: as §1

## NC(=O)CC[C@H](N)C(=O)O [L-glutamine]
IBS (6 yrs duration); dose 3 gm L-glutamine
  percent of improvement upon administration of the L-glutamine alone: none
IBS (6 yrs duration); dose 15 gm L-glutamine
  percent of improvement upon administration of the L-glutamine alone: 25%
IBS (6 yrs duration); dose 30 gm L-glutamine
  percent of improvement upon administration of the L-glutamine alone: 45%
IBS (6 yrs duration); dose 60 gm L-glutamine
  percent of improvement upon administration of the L-glutamine alone: 85%
Ileitis (9 yrs duration); dose 3 gm L-glutamine
  percent of improvement upon administration of the L-glutamine alone: 5%
Ileitis (9 yrs duration); dose 15 gm L-glutamine
  percent of improvement upon administration of the L-glutamine alone: 20%
Ileitis (9 yrs duration); dose 30 gm L-glutamine
  percent of improvement upon administration of the L-glutamine alone: 50%
Ileitis (9 yrs duration); dose 60 gm L-glutamine
  percent of improvement upon administration of the L-glutamine alone: 90%
